Assays:
[1] = mn = molality of the nth substance listed, in mol/kg; details: Liquid, m2 = 0
[2] = Liquid, Vibrating tube method

O [water] + C[N+](C)(C)[O-]
mass density [kg/m3], [1]
Details	278.15 K	288.15 K	298.15 K	308.15 K	323.15 K
101 kPa, Vibrating tube method	999.96	–	–	–	988.03
10000 kPa, Constant-volume piezometry	1004.78	1003.67	1001.47	998.36	992.31
25000 kPa, Constant-volume piezometry	1011.88	1010.42	1007.99	1004.75	998.61
50000 kPa, Constant-volume piezometry	1023.2	1021.21	1018.44	1014.97	1008.68
75000 kPa, Constant-volume piezometry	1033.92	1031.47	1028.38	1024.71	1018.27
100000 kPa, Constant-volume piezometry	1044.08	1041.23	1037.86	1034	1027.42

O [water]
mass density [kg/m3], [2]
Details	101 kPa	10000 kPa	25000 kPa	50000 kPa	75000 kPa	100000 kPa
278.15 K	999.96	1004.78	1011.88	1023.2	1033.92	1044.08
288.15 K	–	1003.67	1010.42	1021.21	1031.47	1041.23
298.15 K	–	1001.47	1007.99	1018.44	1028.38	1037.86
308.15 K	–	998.36	1004.75	1014.97	1024.71	1034
323.15 K	988.03	992.31	998.61	1008.68	1018.27	1027.42
